Legend:
Experiment in all cases: Kinase panel profiling at 1 µmol/L (mobility shift assay, Carna)
IKKβ = biological target: T1, IKKβ (Homo sapiens, UniProt O14920); type: biochemical; details: 1 µmol/L of BTK inhibitor
T1 construct: purchased Carna Biosciences
T1 sequence (O14920 1-756): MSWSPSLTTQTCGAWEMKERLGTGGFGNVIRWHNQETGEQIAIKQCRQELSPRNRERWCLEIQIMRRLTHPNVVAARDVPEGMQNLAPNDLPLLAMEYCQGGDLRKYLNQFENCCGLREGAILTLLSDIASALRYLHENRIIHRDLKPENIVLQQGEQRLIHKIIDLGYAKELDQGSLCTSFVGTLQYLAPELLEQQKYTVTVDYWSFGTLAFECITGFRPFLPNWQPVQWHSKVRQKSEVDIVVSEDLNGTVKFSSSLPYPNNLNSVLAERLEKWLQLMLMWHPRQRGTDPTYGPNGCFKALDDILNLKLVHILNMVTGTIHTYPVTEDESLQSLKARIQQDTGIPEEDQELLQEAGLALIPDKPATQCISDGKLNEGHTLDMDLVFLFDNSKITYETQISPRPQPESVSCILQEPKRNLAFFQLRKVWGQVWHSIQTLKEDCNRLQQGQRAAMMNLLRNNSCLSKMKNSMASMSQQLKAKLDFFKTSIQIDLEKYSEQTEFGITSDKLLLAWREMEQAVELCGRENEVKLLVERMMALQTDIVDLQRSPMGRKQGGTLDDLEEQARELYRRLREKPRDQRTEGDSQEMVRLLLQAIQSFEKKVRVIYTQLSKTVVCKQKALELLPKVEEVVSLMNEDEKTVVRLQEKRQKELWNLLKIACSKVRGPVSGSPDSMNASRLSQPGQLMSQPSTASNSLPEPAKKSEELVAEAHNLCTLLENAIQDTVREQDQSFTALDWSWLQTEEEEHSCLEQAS

DYRK3 = biological target: T2, DYRK3 (Homo sapiens, UniProt O43781); type: biochemical; details: 1 µmol/L of BTK inhibitor
T2 construct: purchased Carna Biosciences
T2 sequence (O43781 1-588): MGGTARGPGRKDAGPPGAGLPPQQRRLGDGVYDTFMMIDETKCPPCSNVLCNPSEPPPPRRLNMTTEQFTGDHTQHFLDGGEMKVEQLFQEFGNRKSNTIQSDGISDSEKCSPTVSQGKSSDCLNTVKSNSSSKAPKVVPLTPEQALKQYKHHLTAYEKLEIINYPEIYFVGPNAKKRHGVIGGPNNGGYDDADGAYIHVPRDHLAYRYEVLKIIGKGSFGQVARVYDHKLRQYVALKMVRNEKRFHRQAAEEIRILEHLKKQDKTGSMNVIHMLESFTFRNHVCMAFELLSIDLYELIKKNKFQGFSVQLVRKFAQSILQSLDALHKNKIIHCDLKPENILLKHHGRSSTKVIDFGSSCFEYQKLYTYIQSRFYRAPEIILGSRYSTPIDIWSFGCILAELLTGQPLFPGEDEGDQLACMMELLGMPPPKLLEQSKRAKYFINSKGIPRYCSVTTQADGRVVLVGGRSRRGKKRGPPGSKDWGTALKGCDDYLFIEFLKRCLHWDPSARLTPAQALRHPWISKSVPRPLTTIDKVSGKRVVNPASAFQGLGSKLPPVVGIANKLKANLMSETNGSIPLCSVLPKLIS

CDK2/CycE1 = biological target: T3, CDK2/CycE1 (Homo sapiens, UniProt P24941); type: biochemical; details: 1 µmol/L of BTK inhibitor
T3 construct: purchased Carna Biosciences

BLK = biological target: T4, BLK (Homo sapiens, UniProt P51451); type: biochemical; details: 1 µmol/L of BTK inhibitor
T4 construct: purchased Carna Biosciences
T4 sequence (P51451 whole entry): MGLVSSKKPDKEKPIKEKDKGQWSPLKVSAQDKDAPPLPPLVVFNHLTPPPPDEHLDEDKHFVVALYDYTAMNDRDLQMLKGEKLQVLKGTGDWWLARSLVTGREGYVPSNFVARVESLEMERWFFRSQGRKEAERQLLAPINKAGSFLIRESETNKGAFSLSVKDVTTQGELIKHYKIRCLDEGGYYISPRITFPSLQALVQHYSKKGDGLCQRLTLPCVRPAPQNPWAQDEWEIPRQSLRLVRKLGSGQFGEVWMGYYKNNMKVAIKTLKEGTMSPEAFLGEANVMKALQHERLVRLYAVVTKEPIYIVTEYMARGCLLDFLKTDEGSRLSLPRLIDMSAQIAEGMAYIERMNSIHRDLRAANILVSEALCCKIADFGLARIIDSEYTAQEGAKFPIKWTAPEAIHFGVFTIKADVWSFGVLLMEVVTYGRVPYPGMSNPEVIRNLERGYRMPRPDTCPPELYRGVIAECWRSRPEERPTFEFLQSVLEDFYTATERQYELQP

CLK3 = biological target: T5, CLK3 (Homo sapiens, UniProt P49761); type: biochemical; details: 1 µmol/L of BTK inhibitor
T5 construct: purchased Carna Biosciences
T5 sequence (P49761 whole entry): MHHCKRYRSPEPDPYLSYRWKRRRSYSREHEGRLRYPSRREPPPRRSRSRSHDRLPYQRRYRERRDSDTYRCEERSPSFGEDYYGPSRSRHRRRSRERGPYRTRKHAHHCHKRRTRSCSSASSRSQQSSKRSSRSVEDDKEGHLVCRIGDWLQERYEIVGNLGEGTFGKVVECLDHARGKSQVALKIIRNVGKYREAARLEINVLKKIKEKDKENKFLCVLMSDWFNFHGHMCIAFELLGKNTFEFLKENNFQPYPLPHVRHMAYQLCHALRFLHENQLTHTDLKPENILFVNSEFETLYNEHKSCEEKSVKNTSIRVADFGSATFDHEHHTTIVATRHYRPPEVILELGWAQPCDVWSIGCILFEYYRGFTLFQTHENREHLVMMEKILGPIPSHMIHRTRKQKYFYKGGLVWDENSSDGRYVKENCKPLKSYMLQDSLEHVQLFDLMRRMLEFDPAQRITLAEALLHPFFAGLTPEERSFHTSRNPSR

HIPK3 = biological target: T6, HIPK3 (Homo sapiens, UniProt Q9H422); type: biochemical; details: 1 µmol/L of BTK inhibitor
T6 construct: purchased Carna Biosciences
T6 sequence (Q9H422 whole entry): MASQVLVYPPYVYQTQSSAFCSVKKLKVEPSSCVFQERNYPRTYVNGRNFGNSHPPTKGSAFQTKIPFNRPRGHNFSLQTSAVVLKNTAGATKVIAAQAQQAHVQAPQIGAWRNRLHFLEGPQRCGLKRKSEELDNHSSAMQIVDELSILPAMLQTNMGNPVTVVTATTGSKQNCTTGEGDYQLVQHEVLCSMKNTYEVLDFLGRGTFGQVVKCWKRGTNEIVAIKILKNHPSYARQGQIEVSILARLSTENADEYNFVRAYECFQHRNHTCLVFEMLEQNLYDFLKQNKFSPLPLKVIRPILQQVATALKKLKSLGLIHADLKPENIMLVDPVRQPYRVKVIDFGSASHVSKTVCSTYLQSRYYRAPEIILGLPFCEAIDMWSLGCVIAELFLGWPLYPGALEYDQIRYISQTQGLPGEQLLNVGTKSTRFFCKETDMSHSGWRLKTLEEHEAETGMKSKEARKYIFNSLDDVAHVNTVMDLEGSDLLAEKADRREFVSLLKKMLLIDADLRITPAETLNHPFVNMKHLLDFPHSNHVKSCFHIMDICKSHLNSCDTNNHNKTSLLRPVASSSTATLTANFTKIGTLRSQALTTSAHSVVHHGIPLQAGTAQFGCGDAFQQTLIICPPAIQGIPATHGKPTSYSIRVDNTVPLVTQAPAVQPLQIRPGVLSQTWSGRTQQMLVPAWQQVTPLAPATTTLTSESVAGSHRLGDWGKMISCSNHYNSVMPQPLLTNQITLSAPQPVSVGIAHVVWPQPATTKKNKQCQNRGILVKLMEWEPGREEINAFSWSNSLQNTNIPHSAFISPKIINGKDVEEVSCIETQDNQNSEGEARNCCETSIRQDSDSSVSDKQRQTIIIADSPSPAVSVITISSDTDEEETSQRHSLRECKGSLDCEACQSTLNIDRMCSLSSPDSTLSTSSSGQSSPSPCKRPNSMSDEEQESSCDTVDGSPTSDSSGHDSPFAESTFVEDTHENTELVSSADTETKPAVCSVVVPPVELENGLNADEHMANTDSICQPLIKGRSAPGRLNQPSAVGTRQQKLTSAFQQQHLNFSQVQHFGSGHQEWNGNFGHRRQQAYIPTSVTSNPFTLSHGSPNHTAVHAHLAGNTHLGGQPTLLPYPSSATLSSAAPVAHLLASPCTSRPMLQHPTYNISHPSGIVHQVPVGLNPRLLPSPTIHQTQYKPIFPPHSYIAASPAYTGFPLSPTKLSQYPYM

HER4 = biological target: T7, HER4 (Homo sapiens, UniProt Q15303); type: biochemical; details: 1 µmol/L of BTK inhibitor
T7 construct: purchased Carna Biosciences
T7 sequence (Q15303 26-1308): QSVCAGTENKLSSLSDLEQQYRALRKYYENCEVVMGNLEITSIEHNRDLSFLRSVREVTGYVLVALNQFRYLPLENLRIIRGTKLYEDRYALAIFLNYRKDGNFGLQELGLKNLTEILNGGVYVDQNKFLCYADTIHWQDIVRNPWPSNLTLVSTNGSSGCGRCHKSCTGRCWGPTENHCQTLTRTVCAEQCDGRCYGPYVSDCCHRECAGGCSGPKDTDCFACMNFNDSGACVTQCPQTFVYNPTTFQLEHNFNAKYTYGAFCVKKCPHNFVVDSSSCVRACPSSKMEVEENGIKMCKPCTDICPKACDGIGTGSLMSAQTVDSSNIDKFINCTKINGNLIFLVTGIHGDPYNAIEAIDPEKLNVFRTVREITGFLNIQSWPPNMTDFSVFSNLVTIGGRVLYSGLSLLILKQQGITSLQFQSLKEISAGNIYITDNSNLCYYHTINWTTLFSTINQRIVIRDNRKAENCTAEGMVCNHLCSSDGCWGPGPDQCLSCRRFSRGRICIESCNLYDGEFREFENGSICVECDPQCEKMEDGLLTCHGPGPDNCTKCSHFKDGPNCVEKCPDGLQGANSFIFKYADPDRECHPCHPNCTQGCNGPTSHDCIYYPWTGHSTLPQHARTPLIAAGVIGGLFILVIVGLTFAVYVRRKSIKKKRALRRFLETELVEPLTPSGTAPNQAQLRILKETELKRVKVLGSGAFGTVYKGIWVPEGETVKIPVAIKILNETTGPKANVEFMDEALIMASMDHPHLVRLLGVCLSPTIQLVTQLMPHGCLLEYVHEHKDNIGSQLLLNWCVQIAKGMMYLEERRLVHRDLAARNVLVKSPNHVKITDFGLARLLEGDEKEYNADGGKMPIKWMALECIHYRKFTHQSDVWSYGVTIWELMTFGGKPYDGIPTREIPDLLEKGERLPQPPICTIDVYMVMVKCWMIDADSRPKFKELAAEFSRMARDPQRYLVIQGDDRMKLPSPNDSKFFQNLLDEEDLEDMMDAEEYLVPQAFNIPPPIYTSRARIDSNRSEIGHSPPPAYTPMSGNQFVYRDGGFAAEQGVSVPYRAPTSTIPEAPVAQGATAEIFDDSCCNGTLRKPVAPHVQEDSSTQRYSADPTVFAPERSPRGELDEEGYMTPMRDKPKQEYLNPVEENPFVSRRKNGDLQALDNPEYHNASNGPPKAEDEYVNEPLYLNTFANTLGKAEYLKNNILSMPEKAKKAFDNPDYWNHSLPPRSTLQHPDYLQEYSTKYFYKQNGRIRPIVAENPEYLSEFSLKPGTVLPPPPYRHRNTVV

TYRO3 = biological target: T8, TYRO3 (Homo sapiens, UniProt Q06418); type: biochemical; details: 1 µmol/L of BTK inhibitor
T8 construct: purchased Carna Biosciences
T8 sequence (Q06418 41-890): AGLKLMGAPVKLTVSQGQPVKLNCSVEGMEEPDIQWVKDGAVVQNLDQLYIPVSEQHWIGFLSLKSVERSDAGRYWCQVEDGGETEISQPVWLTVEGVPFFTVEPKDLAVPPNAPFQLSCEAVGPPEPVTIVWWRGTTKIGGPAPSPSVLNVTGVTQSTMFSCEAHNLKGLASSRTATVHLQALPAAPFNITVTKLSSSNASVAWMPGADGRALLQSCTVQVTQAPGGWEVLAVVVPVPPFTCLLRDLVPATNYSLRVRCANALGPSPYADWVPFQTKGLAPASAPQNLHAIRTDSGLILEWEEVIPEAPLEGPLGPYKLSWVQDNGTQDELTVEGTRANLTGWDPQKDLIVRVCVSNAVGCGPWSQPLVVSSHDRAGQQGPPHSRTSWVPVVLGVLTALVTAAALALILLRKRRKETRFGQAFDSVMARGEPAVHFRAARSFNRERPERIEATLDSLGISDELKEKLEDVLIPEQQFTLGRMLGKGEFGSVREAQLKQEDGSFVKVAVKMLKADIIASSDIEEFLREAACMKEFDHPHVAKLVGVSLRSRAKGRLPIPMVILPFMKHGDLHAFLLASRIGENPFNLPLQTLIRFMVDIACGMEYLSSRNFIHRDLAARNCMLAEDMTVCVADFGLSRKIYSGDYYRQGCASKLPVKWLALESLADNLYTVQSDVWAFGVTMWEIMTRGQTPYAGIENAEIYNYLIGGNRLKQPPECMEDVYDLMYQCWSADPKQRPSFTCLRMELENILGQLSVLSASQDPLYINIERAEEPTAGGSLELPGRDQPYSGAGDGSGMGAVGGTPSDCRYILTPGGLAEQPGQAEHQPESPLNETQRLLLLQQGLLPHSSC

KIT = biological target: T9, KIT (Homo sapiens, UniProt P10721); type: biochemical; details: 1 µmol/L of BTK inhibitor
T9 construct: purchased Carna Biosciences
T9 sequence (P10721 26-976): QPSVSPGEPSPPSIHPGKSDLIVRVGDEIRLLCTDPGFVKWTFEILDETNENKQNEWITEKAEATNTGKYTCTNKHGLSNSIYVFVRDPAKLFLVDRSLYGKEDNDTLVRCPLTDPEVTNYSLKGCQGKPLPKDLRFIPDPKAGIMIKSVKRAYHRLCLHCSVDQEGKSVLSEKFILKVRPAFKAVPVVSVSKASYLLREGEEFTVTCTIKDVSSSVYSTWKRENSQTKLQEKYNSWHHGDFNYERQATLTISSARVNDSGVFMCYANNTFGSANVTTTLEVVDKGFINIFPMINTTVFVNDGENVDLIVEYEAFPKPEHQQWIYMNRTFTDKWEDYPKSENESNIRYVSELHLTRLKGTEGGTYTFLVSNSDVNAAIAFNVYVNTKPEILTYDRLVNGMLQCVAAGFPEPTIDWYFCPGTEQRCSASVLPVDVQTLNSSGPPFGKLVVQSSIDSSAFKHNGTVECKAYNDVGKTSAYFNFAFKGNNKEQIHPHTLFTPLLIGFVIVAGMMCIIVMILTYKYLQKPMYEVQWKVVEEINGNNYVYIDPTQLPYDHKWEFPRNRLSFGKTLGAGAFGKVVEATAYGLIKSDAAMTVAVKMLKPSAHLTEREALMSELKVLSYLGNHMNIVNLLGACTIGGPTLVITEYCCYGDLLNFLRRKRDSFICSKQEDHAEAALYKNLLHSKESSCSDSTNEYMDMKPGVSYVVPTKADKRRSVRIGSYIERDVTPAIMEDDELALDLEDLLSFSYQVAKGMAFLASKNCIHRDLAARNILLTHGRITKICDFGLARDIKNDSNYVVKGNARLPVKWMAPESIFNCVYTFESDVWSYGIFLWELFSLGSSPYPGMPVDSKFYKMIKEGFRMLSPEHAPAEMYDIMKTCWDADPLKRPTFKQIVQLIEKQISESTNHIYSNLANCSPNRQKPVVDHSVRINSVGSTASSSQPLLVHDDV

BRK = BRK (Homo sapiens, UniProt Q13882); details: for Percentage inhibition of kinase enzyme activity: BRK, 1 µmol/L of BTK inhibitor
Sequence of BRK (Q13882 whole entry): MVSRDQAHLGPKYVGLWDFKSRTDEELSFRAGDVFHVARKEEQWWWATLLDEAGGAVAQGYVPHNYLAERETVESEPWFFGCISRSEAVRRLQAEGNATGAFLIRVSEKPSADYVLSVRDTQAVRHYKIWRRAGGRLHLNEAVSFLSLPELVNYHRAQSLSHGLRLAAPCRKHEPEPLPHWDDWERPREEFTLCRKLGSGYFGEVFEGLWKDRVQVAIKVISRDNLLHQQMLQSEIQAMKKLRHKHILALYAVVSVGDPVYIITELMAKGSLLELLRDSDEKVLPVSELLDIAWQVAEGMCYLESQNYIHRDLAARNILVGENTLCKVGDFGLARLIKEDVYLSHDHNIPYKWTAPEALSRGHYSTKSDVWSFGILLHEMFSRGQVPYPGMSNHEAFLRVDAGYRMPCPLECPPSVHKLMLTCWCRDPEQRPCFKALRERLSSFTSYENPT

SMILES | Percentage inhibition of kinase enzyme activity (IKKβ) [%] | Percentage inhibition of kinase enzyme activity (DYRK3) [%] | Percentage inhibition of kinase enzyme activity (CDK2/CycE1) [%] | Percentage inhibition of kinase enzyme activity (BLK) [%] | Percentage inhibition of kinase enzyme activity (CLK3) [%] | Percentage inhibition of kinase enzyme activity (HIPK3) [%] | Percentage inhibition of kinase enzyme activity (HER4) [%] | Percentage inhibition of kinase enzyme activity (TYRO3) [%] | Percentage inhibition of kinase enzyme activity (KIT) [%] | Percentage inhibition of kinase enzyme activity (BRK) [%] | inhibition at 1 µM (BRK; read-out: Inhibition of BRK) [%]
O=C(c1ccc(Oc2ccccc2)cc1Cl)c1c[nH]c2ncnc(N[C@@H]3CC[C@@H](CO)OC3)c12 [nemtabrutinib] | -1.18 | -5.63 | -17.66 | 102.70 | -2.19 | 5.34 | 95.14 | 58.33 | 78.81 |  | 
CC#CC(=O)N1CCC[C@H]1c1nc(-c2ccc(C(=O)Nc3ccccn3)cc2)c2c(N)nccn12 [acalabrutinib] | -6.98 | 0.35 | -4.82 | 8.43 | -14.91 | -12.04 | 77.61 | 3.11 | 2.89 | 51.05 | 
COc1ccc(F)cc1C(=O)NCc1ccc(-c2nn([C@@H](C)C(F)(F)F)c(N)c2C(N)=O)cc1 [pirtobrutinib] | 0.58 | 7.54 | -41.48 | 30.87 | 14.87 | 3.06 | 69.88 | -3.18 | -5.95 | 89.81 | > 75
C=CC(=O)N1CCC([C@@H]2CCNc3c(C(N)=O)c(-c4ccc(Oc5ccccc5)cc4)nn32)CC1 [zanubrutinib] |  |  |  | 98.41 |  |  | 2.98 |  | -2.78 | 98.97 | 
C=CC(=O)N1CCC[C@@H](n2nc(-c3ccc(Oc4ccccc4)cc3)c3c(N)ncnc32)C1 [ibrutinib] | -0.35 | -3.93 | -8.27 | 101.19 |  | 1.67 | 98.60 | 11.95 | -4.53 | 102.78 | 

Source: PMC12586182 (Frontiers in Oncology, 2025)
